The results in this text go back to PMC5412286, “Biosynthesis of α-Glucosidase Inhibitors by a Newly Isolated Bacterium, Paenibacillus sp. TKU042 and Its Effect on Reducing Plasma Glucose in a Mouse Model” (International Journal of Molecular Sciences, 2017).

The nature of data set [1]: DPPH radical scavenging activity assay. As to the method:
One hundred and twenty microliters of each sample (at different concentrations) was mixed with 30 µL of a methanolic solution containing 0.75 mM DPPH radicals in the well of a plate with 96 wells. The mixture was kept in the dark for 30 min before absorbance at 517 nm was measured. Radical scavenging activity was calculated using the following formula: Antioxidant activity (%) = [(AB − AA)/AB] × 100 where AB and AA stand for absorption of the blank sample (t = 0 min) and absorption of the tested sample solution (t = 30 min), respectively. α-Tocopherol dissolved in MeOH was also analyzed as a control.
(DPPH is a stable violet radical that fades when it is reduced.)

For data set [2], the target named is T1, Saccharomyces cerevisiae α-glucosidase (Saccharomyces cerevisiae, UniProt P53341).
T1 construct: purchased Sigma Chemical Co., St. Louis, MO, USA
In words: yeast α-glucosidase inhibition assay. It is filed as biochemical. The settings on record: S. cerevisiae α-glucosidase.
Method: SPP, SHP (shrimp head powder), and NB were used as the sole sources of C/N with concentrations of 1%, 1% and 0.8%, respectively. Fermentation conditions were set at 30 °C, shaking speed of 150 rpm, 100/250 mL for the medium/flask volume ratio, and 1 mL of bacterial seed solution (OD660nm = 0.38). The inhibition against yeast α-glucosidase was then tested and calculated in % (A) or U/mL (B); the growth of Paenibacillus sp. TKU042 was detected at OD660nm (C). […] Saccharomyces cerevisiae α-glucosidase was used to test aGI activity.
All of the isolated strains were incubated in a 250-mL Erlenmeyer flask with 50 mL of the same medium, but without agar. Fermentation was performed at 37 °C and a 150 rpm shaking speed. After 1–4 days of fermentation, the culture was centrifuged at 500 rpm for 10 min to remove the medium residue. The solution was then centrifuged again at 4000 rpm for 20 min to separate the cells from the culture supernatant. The supernatant was then used to test yeast α-glucosidase inhibitory activity. […] The screening of active bacteria was based on the inhibitory activity of the supernatant.
Three sources of C/N (1% SPP, 1% SHP, and 0.8% NB) were used to cultivate Paenibacillus sp. TKU042; conditions were set at 30 °C, a shaking speed of 150 rpm and a 100/250 mL medium/flask volume ratio for nine days. […]

Data set [3] relates to ICR mice. In words: diarrhea / ill effects in the sucrose tolerance test. Conditions: FNB 100, 200 or 400 mg, acarbose 12.5 mg, FNB (100, 200 mg) with acarbose 12.5 mg.
Method: A sucrose solution was orally administered at 3 g/kg bw and blood was sampled and measured after 0.5, 1, 1.5 and 2 h.
The target in data set [4] is Rat α-glucosidase. In words: rat intestinal α-glucosidase inhibition assay. It is filed as biochemical. As to the method:
To determine rat intestinal α-glucosidase inhibition, the techniques from the previous report were followed, with modifications. One hundred mg of rat-intestinal acetone powder was suspended in 4 mL of 0.1 mol/L potassium phosphate buffer (NPB), pH 7. The suspension was sonicated several times for 12 s at 4 °C and then centrifuged for 20 min at 10,000× g. The residues were twice suspended with 3 mL of 0.1 mol/L NPB at pH 7, as described above. The resulting supernatant was mixed together and dialyzed for 12 h at 4–6 °C, and then used for the assay. The α-glucosidase, sample solutions and buffer were pre-mixed at volumes of 50, 50 and 100 μL, respectively. After pre-incubation at 37 °C for 20 min, the reaction started when 50 μL of p-nitrophenyl glucopyranoside (10 mmol/L) was added to the mixture. After 20 min at 37 °C, 100 μL Na2CO3 solution (1 mol/L) was added to terminate the reaction. The absorbance of the final mixture was measured at 410 nm and used to calculate inhibition (%) using the following equation: α-glucosidase inhibitory activity (%) = (A − B)/A × 100 where “A” is the absorbance of the control (buffer was used instead of sample with the same volume) and “B” is the absorbance of the final mixture containing the sample and α-glucosidase. The IC50 value was defined and determined as per the previous study. […]

Marks after values point to notes of the source that are not given here.

T1 sequence (P53341 whole entry): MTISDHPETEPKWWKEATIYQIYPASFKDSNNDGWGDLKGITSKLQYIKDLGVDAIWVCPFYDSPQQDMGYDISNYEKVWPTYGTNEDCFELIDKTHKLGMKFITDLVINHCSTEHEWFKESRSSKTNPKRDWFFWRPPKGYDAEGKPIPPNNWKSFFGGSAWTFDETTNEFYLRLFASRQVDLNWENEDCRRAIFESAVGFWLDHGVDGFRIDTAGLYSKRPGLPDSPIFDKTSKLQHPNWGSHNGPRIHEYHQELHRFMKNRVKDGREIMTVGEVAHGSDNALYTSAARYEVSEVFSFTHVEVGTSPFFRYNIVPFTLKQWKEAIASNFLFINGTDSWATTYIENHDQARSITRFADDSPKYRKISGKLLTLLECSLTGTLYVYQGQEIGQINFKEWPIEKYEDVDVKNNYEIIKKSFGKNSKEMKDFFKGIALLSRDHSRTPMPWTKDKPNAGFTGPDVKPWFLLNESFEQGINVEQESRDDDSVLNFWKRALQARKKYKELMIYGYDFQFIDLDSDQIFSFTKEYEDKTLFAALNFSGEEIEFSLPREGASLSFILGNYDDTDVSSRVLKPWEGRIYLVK

Consider `Cc1c(C)c2c(c(C)c1O)CC[C@@](C)(CCC[C@H](C)CCC[C@H](C)CCCC(C)C)O2` [α-Tocopherol], for which the “antioxidant activity IC50 (DPPH radical scavenging)” value in data set [1] (DPPH, 30 min, 517 nm) amounted to 24.7 ± 1.2 µg/mL. In data set [1] (maximum activity), the “antioxidant activity achieved (DPPH)” value was “approximately 100%”.

With `C[C@H]1O[C@H](O[C@H]2[C@H](O)[C@@H](O)[C@@H](O[C@H]3[C@H](O)[C@@H](O)C(O)O[C@@H]3CO)O[C@@H]2CO)[C@H](O)[C@@H](O)[C@@H]1N[C@H]1C=C(CO)[C@@H](O)[C@H](O)[C@H]1O` (stereo partly drawn) [acarbose], in data set [2], the “Maximum Inhibitory Activity” value turned out to be 63 ± 2.5%. Moreover, the “ill effects (diarrhea), in words” value in data set [3] is “No ill effects”. In data set [4], the IC50 was 107 ± 2.5 ^c µg/mL and the “Maximum Inhibitory Activity” value is 89 ± 2.4%.
